# Results reported in patent US6642392B1 (priority 1997, dated 2003).
# Columns and labels:
# Assay type in all cases: in vivo
# Puccinia recondita = test: Test B: wheat leaf rust, preventive spray on wheat seedlings; conditions: for Test B disease control rating (100 = 100% disease control, 0 = no disease control): wheat seedlings sprayed to run-off, inoculated the following day, rating relative to controls, unmarked compounds (standard test rate); for Test B disease control rating: wheat leaf rust, 100 = 100% disease control, 0 = no control, unmarked entries (standard test concentration)
# Description: (§1) The resulting test suspensions were then used in the following tests. […]
# The test suspension was sprayed to the point of run-off on wheat seedlings. The following day the seedlings were inoculated with a spore suspension of Puccinia recondita (the causal agent of wheat leaf rust) and incubated in a saturated atmosphere at 20° C. for 24 h, and then moved to a growth chamber at 20° C. for 6 days, after which disease ratings were made.
# (§2) Results for Tests A-E are given in Table A. In the table, a rating of 100 indicates 100% disease control and a rating of 0 indicates no disease control (relative to the controls). A dash (-) indicates no test results. ND indicates disease control not determined due to phytotoxicity.
# Pyricularia oryzae = conditions: for Test C disease control rating (100 = 100% disease control, 0 = no disease control): rice seedlings sprayed to run-off, inoculated the following day, rating relative to controls, unmarked compounds (standard test rate); for Test C disease control rating: rice blast, 100 = 100% disease control, 0 = no control, unmarked entries (standard test concentration)
# [1] = system: Eiysiphe graminis f. sp. tritici; test: Test A: wheat powdery mildew, preventive spray on wheat seedlings; conditions: for Test A disease control rating (100 = 100% disease control, 0 = no disease control): wheat seedlings sprayed to run-off, inoculated the following day, rating relative to controls, unmarked compounds (standard test rate); for Test A disease control rating: wheat powdery mildew, 100 = 100% disease control, 0 = no control relative to controls, unmarked entries (standard test concentration)
# Description: as §1
# The test suspension was sprayed to the point of run-off on wheat seedlings. The following day the seedlings were inoculated with a spore dust of Eiysiphe graminis f. sp. tritici, (the causal agent of wheat powdery mildew) and incubated in a growth chamber at 20° C. for 7 days, after which disease ratings were made.
# as §2
# Phytophthora infestans = conditions: for Test D disease control rating (100 = 100% disease control, 0 = no disease control): tomato seedlings sprayed to run-off, inoculated the following day, rating relative to controls, unmarked compounds (standard test rate); for Test D disease control rating: tomato late blight, 100 = 100% disease control, 0 = no control, unmarked entries (standard test concentration)
# Botrytis cinerea = test: Test E: gray mold, preventive spray on cucumber seedlings; conditions: gray mold on cucumber; 100 = 100% disease control, 0 = no control; unmarked entries (standard test concentration)
# Description: The resulting test suspensions were then used in the following tests. Spraying these 200 ppm test suspensions to the point of run-off on the test plants is the equivalent of a rate of 500 g/ha.
# The test suspension was sprayed to the point of run-off on cucumber seedlings. The following day the seedlings were inoculated with a spore suspension of Botrytis cinerea (the causal agent of gray mold on many crops) and incubated in a saturated atmosphere at 20° C. for 48 h, and moved to a growth chamber at 20° C. for 5 days, after which disease ratings were made.
# as §2
SMILES,"Test B disease control rating (100 = 100% disease control, 0 = no disease control) (Puccinia recondita)","Test C disease control rating (100 = 100% disease control, 0 = no disease control) (Pyricularia oryzae)","Test A disease control rating (100 = 100% disease control, 0 = no disease control) [1]","Test D disease control rating (100 = 100% disease control, 0 = no disease control) (Phytophthora infestans)",Test B disease control rating (Puccinia recondita),Test C disease control rating (Pyricularia oryzae),Test E disease control rating (Botrytis cinerea),Test A disease control rating [1],Test D disease control rating (Phytophthora infestans)
CC(COc1cc(F)ccc1OC(F)(F)C(F)F)NC(=O)C(C#N)C(C)(C=CF)CF (mixture of isomers) [compound 225],86%,100%,91%,5%,–,–,–,–,–
CCC1(C(=O)NC(C)COc2ccc(F)c(F)c2F)C(C)C1(Cl)Cl (stereo not drawn) [compound 238],0%,74%,62%,0%,–,–,–,–,–
CCC1(C(=O)NC(C)COc2cccc(Br)c2)C(C)C1(Cl)Cl (mixture of isomers) [85a],–,–,–,–,0%,53%,0%,55%,–
CCC1(C(=O)NC(C)COc2cc(Cl)ccc2F)C(C)C1(Cl)Cl (stereo not drawn) [compound 252],0%,99%,0%,5%,–,–,–,–,–
Cc1ccc(F)c(OCC(C)NC(=O)C(C#N)C(C)(C=CF)CF)c1 (mixture of isomers) [compound 226],0%,100%,0%,0%,–,–,–,–,–
CCC1(C(=O)NC(C)COc2cc(F)c(F)cc2Br)C(C)C1(Cl)Cl (stereo not drawn) [compound 235],0%,91%,0%,0%,–,–,–,–,–
CCC1(C(=O)NC(C)COc2cc(F)ccc2Cl)C(C)C1(Cl)Cl (stereo not drawn) [compound 253],0%,100%,59%,0%,–,–,–,–,–
CCCc1ccccc1OCC(C)NC(=O)C(C#N)C(C)(C)C (mixture of isomers) [21b],–,–,–,–,27%,99%,0%,37%,–
"C[C@H](COc1cc(Cl)ccc1F)NC(=O)C(C#N)C(C)(C)C (single isomer, unassigned) [198a]",–,–,–,–,28%,100%,–,75%,5%
CC(COc1c(F)c(F)cc(F)c1F)NC(=O)C(C#N)C(C)(C)C (mixture of isomers) [compound 195],–,–,–,–,0%,99%,–,85%,32%
CC(COc1c(Cl)cc(F)cc1Cl)NC(=O)C(C#N)C(C)(C)C (mixture of isomers) [compound 197],–,–,–,–,0%,86%,–,59%,0%
CC(COc1cc(Cl)ccc1F)NC(=O)C(C#N)C(C)C(C)(C)C (mixture of isomers) [compound 199],–,–,–,–,68%,97%,–,85%,5%
CCC1(C(=O)NC(C)COc2ccccc2C#N)C(C)C1(Cl)Cl (mixture of isomers) [89b],–,–,–,–,68%,91%,47%,26%,–
"C[C@H](COc1cc(Cl)ccc1F)NC(=O)C(C#N)C(C)(C)C (single isomer, unassigned) [198b]",–,–,–,–,28%,100%,–,59%,5%
CCC1(C(=O)NCCCn2c(C#N)cc(Cl)c2Cl)C(C)C1(Cl)Cl (stereo not drawn) [compound 151],–,–,–,–,0%,91%,0%,0%,–
CC(COc1cc(Cl)ccc1F)NC(=O)C(C#N)C(C)(C)C=CF (mixture of isomers) [compound 224],0%,100%,85%,5%,–,–,–,–,–
"C=CC(C)(C)C(C#N)C(=O)N[C@H](C)COc1cc(Cl)ccc1F (single isomer, unassigned) [200a]",–,–,–,–,0%,100%,–,0%,5%
CCC1(C(=O)NC(C)COc2ccccc2F)C(C)C1(Cl)Cl (mixture of isomers) [78b],–,–,–,–,0%,99%,0%,84%,–
CC(COc1c(Br)cc(F)cc1Br)NC(=O)C(C#N)C(C)(C)C (mixture of isomers) [compound 196],–,–,–,–,0%,86%,–,0%,0%
CCC1(C(=O)NCCCn2c(Cl)ccc2C#N)C(C)C1(Cl)Cl (stereo not drawn) [compound 152],–,–,–,–,68%,86%,0%,55%,–
C#CC(C)(C)C(C#N)C(=O)NC(C)COc1cc(Cl)ccc1F (mixture of isomers) [compound 320],68%,100%,59%,0%,–,–,–,–,–
CCC1(C(=O)NC(C)COc2ccccc2)C(C)C1(Cl)Cl (mixture of isomers) [77a],–,–,–,–,28%,86%,0%,73%,–
"C=CC(C)(C)C(C#N)C(=O)N[C@H](C)COc1cc(Cl)ccc1F (single isomer, unassigned) [200b]",–,–,–,–,0%,100%,–,0%,5%
Cc1ccc(Cl)c(OCC(C)NC(=O)C(C#N)C(C)(C=CF)CF)c1 (mixture of isomers) [compound 227],0%,100%,0%,0%,–,–,–,–,–
